From patent US20110064713A1 (priority 2009, published 2011)

System: DU-145 cells
Assay type: cell-based, Human

Compound: C=C1[C@@H](C)[C@H]2[C@H](Cc3ccccc3)NC(=O)[C@]23[C@H](OC(C)=O)/C=C/[C@@](C)(O)C(=O)[C@@H](C)C/C=C/[C@H]3[C@@H]1O [Cytochalasin-D]
- Relative Wound Density at 24 Hours, Mean: 3.3 ± 0.2
- Relative Wound Density at 24 Hours, Percent Relative to Media: 4%
- effect on cell migration: did not migrate
